Assays:
[1] = system: pathogens of clinical samples; experiment: Molecular phenotypic antimicrobial susceptibility test of clinical samples, direct PCR without a separate DNA purification step (Table 6); type: cell-based
How it was run: (§1)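 Specimens are first pre-incubated in medium, then diluted to 0.5 McFarland guided by optical density. They are exposed 12-16 h to antimicrobials at sensitivity breakpoints. Finally, either bead-based purification or lysis for direct PCR precedes semi-quantitative PCR.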

E. coli = experiment: Molecular phenotypic antimicrobial susceptibility test with direct PCR (no extraction DNA purification step); type: cell-based, Escherichia coli
Escherichia coli = experiment: Molecular phenotypic antimicrobial susceptibility test (extraction or DNA purification prior to PCR); type: cell-based
How it was run: as §1

[2] = E. coli, clinical sample of r10-r24
[3] = E. coli, clinical sample of r10-r24, Ct control avg 12.97
[4] = E. coli, clinical sample of r158-r172
[5] = E. coli, clinical sample of r158-r172, Ct control avg 12.894
[6] = K. aerogenes, clinical sample of r136-r150
[7] = K. aerogenes, clinical sample of r136-r150, Ct control avg 13.854
[8] = K. pneumoniae, clinical sample of r121-r135
[9] = K. pneumoniae, clinical sample of r121-r135, Ct control avg […]
[10] = M. morganii, clinical sample of r55-r69
[11] = M. morganii, clinical sample of r55-r69, Ct control avg 12.09
[12] = M. morganii, clinical sample of r70-r84
[13] = M. morganii, clinical sample of r70-r84, Ct control avg 11.677
[14] = P. mirabilis, clinical sample of r25-r39
[15] = P. mirabilis, clinical sample of r25-r39, Ct control avg 11.801
[16] = P. mirabilis, clinical sample of r40-r54
[17] = P. mirabilis, clinical sample of r40-r54, Ct control avg 10.06
[18] = E. coli #1 - WDCM 00090 - 6.2×E3, specimen with <10,000 cells/mL, direct PCR after 16 hours of incubation
[19] = E. coli #1 - WDCM 00090 - 6.2×E3, specimen with <10,000 cells/mL, direct PCR after 16 hours of incubation, Ct at control 13.787
[20] = E. coli #2 - WDCM 00090 - 6.2×E3, specimen with <10,000 cells/mL, direct PCR after 16 hours of incubation
[21] = E. coli #2 - WDCM 00090 - 6.2×E3, specimen with <10,000 cells/mL, direct PCR after 16 hours of incubation, Ct at control 13.46
[22] = E. coli isolate JJ1887, direct PCR, Ct at control (average) 12.832
[23] = E. coli isolate JJ1887, direct PCR, at sensitive breakpoint
[24] = E. coli isolate 1, Ct at control (average) 21.238
[25] = E. coli isolate 1, at sensitive breakpoint
[26] = E. coli isolate 2, Ct at control (average) 21.270
[27] = E. coli isolate 2, at sensitive breakpoint
[28] = E. coli isolate 3, Ct at control (average) 22.0995
[29] = E. coli isolate 3, at sensitive breakpoint
[30] = E. coli isolate 4, Ct at control (average) 17.5733
[31] = E. coli isolate 4, at sensitive breakpoint
[32] = E. coli isolate 5, Ct at control (average) 21.0933
[33] = E. coli isolate 5, at sensitive breakpoint

Substance | Molecular Antibiotic Susceptibility Result [1, 2] | Ct [1, 3] | Molecular Antibiotic Susceptibility Result [1, 4] | Ct [1, 5] | Molecular Antibiotic Susceptibility Result [1, 6] | Ct [1, 7] | Molecular Antibiotic Susceptibility Result [1, 8] | Ct [1, 9] | Molecular Antibiotic Susceptibility Result [1, 10] | Ct [1, 11] | Molecular Antibiotic Susceptibility Result [1, 12] | Ct [1, 13] | Molecular Antibiotic Susceptibility Result [1, 14] | Ct [1, 15] | Molecular Antibiotic Susceptibility Result [1, 16] | Ct [1, 17] | Molecular Antimicrobial Susceptibility Result (E. coli; [18]) | Ct at Sensitive Breakpoint (E. coli; [19]) | Molecular Antimicrobial Susceptibility Result (E. coli; [20]) | Ct at Sensitive Breakpoint (E. coli; [21]) | also measured
Gentamicin | Sensitive (Antimicrobial wells with pathogen load detected below the control wells (typically >2 cycle thresholds later) may be reported as Sensitive) | 23.559 | Sensitive (Antimicrobial wells with pathogen load detected below the control wells (typically >2 cycle thresholds later) may be reported as Sensitive) | 28.667 | Sensitive (Antimicrobial wells with pathogen load detected below the control wells (typically >2 cycle thresholds later) may be reported as Sensitive) | 31.347 | Sensitive (Antimicrobial wells with pathogen load detected below the control wells (typically >2 cycle thresholds later) may be reported as Sensitive) | 23.5 | Sensitive (Antimicrobial wells with pathogen load detected below the control wells (typically >2 cycle thresholds later) may be reported as Sensitive) | 32.648 | Sensitive (Antimicrobial wells with pathogen load detected below the control wells (typically >2 cycle thresholds later) may be reported as Sensitive) | 30.206 | Sensitive (Antimicrobial wells with pathogen load detected below the control wells (typically >2 cycle thresholds later) may be reported as Sensitive) | 22.67 | Sensitive (Antimicrobial wells with pathogen load detected below the control wells (typically >2 cycle thresholds later) may be reported as Sensitive) | 30.321 | Sensitive (Antimicrobial wells with pathogen load detected below the control wells (typically >2 cycle thresholds later) may be reported as Sensitive) | 28.57 | Sensitive (Antimicrobial wells with pathogen load detected below the control wells (typically >2 cycle thresholds later) may be reported as Sensitive) | 28.70 | Molecular Antibiotic Susceptibility Result ([1]; S. aureus, clinical sample of r85-r92): Sensitive (Antimicrobial wells with pathogen load detected below the control wells (typically >2 cycle thresholds later) may be reported as Sensitive); Ct ([1]; S. aureus, clinical sample of r85-r92, Ct control avg 20.309): 31.422; Ct at Sensitive Breakpoint (E. coli; [22]): 12.308; Molecular Antimicrobial Susceptibility Result (E. coli; [23]): Resistant; Ct at Sensitive Breakpoint (Escherichia coli; [24]): 22.585; Molecular Antimicrobial Susceptibility Result (Escherichia coli; [25]): Resistant; Ct at Sensitive Breakpoint (Escherichia coli; [26]): 24.165; Molecular Antimicrobial Susceptibility Result (Escherichia coli; [27]): Sensitive (Antimicrobial wells with pathogen load detected below the control wells (typically >2 cycle thresholds later) may be reported as Sensitive); Ct at Sensitive Breakpoint (Escherichia coli; [28]): 25.112; Molecular Antimicrobial Susceptibility Result (Escherichia coli; [29]): Sensitive (Antimicrobial wells with pathogen load detected below the control wells (typically >2 cycle thresholds later) may be reported as Sensitive); Ct at Sensitive Breakpoint (Escherichia coli; [30]): 22.64; Molecular Antimicrobial Susceptibility Result (Escherichia coli; [31]): Sensitive (Antimicrobial wells with pathogen load detected below the control wells (typically >2 cycle thresholds later) may be reported as Sensitive); Ct at Sensitive Breakpoint (Escherichia coli; [32]): 25.77; Molecular Antimicrobial Susceptibility Result (Escherichia coli; [33]): Sensitive (Antimicrobial wells with pathogen load detected below the control wells (typically >2 cycle thresholds later) may be reported as Sensitive)
Piperacillin/Tazobactam | Sensitive (Antimicrobial wells with pathogen load detected below the control wells (typically >2 cycle thresholds later) may be reported as Sensitive) | 24.816 | Sensitive (Antimicrobial wells with pathogen load detected below the control wells (typically >2 cycle thresholds later) may be reported as Sensitive) | 29.34 | Sensitive (Antimicrobial wells with pathogen load detected below the control wells (typically >2 cycle thresholds later) may be reported as Sensitive) | 30.839 | Sensitive (Antimicrobial wells with pathogen load detected below the control wells (typically >2 cycle thresholds later) may be reported as Sensitive) | 28.974 | Sensitive (Antimicrobial wells with pathogen load detected below the control wells (typically >2 cycle thresholds later) may be reported as Sensitive) | 13.986 | Sensitive (Antimicrobial wells with pathogen load detected below the control wells (typically >2 cycle thresholds later) may be reported as Sensitive) | 28.975 | Sensitive (Antimicrobial wells with pathogen load detected below the control wells (typically >2 cycle thresholds later) may be reported as Sensitive) | 30.658 | Sensitive (Antimicrobial wells with pathogen load detected below the control wells (typically >2 cycle thresholds later) may be reported as Sensitive) | 30.24 | Sensitive (Antimicrobial wells with pathogen load detected below the control wells (typically >2 cycle thresholds later) may be reported as Sensitive) | 26.78 | Sensitive (Antimicrobial wells with pathogen load detected below the control wells (typically >2 cycle thresholds later) may be reported as Sensitive) | 27.46 | Ct at Sensitive Breakpoint (E. coli; [22]): 23.923; Molecular Antimicrobial Susceptibility Result (E. coli; [23]): Sensitive (Antimicrobial wells with pathogen load detected below the control wells (typically >2 cycle thresholds later) may be reported as Sensitive); Ct at Sensitive Breakpoint (Escherichia coli; [24]): 25.572; Molecular Antimicrobial Susceptibility Result (Escherichia coli; [25]): Sensitive (Antimicrobial wells with pathogen load detected below the control wells (typically >2 cycle thresholds later) may be reported as Sensitive); Ct at Sensitive Breakpoint (Escherichia coli; [26]): 22.685; Molecular Antimicrobial Susceptibility Result (Escherichia coli; [27]): Sensitive (Antimicrobial wells with pathogen load detected below the control wells (typically >2 cycle thresholds later) may be reported as Sensitive); Ct at Sensitive Breakpoint (Escherichia coli; [28]): 20.541; Molecular Antimicrobial Susceptibility Result (Escherichia coli; [29]): Sensitive (Antimicrobial wells with pathogen load detected below the control wells (typically >2 cycle thresholds later) may be reported as Sensitive); Ct at Sensitive Breakpoint (Escherichia coli; [30]): 26.05; Molecular Antimicrobial Susceptibility Result (Escherichia coli; [31]): Sensitive (Antimicrobial wells with pathogen load detected below the control wells (typically >2 cycle thresholds later) may be reported as Sensitive); Ct at Sensitive Breakpoint (Escherichia coli; [32]): 25.44; Molecular Antimicrobial Susceptibility Result (Escherichia coli; [33]): Sensitive (Antimicrobial wells with pathogen load detected below the control wells (typically >2 cycle thresholds later) may be reported as Sensitive)
